The values that follow come from patent US6489537B1 (priority 1998, dated 2002).

Where “and” joins values, the source holds several entries; their conditions need not be identical. Equal entries are not always repeated. Where two headings read alike, the source gives them in different places.

Data set [1] has as its system S. cerevisiae ycf1Δ mutant strain DTY167. Type of data set: cell-based. As to conditions: for IC50: read-out: concentration required for 50% attenuation of cell density.
The next data set deals with TaPCS1 message. Description: Competitive PCR of TaPCS1 expression in wheat roots. The note with it: wheat roots treated with 100 μM Cd2+ for 6 hours versus untreated. Type of data set: in vivo.
Data set [2] has as its system S. cerevisiae INVSc1 cells. Description: Cd2+ dose-response growth of TaPCS1-expressing and control yeast cells. In kind it is cell-based. As to conditions: YNB 1% sucrose/1% galactose, OD600 after 24 hours, read-out: K0.5 for growth.
In data set [3] the test system is S. cerevisiae cells expressing an Arabidopsis metallothionein. Description: Growth in presence of Cd2+ after BSO preincubation, metallothionein cells. In kind it is cell-based. The note with it: 6 hour preincubation, 60 μM Cd2+, OD 18 hours after Cd2+. As to the method: FIG. 13A is a graph depicting phytochelatin synthesis in cells expressing PCS. The growth of S. cerevisiae cells expressing either TaPCS1 (circles) or an Arabidopsis metallothionein (squares) in the presence of Cd^2+ (200 μM for TAPCS1 and 60 μM for metallothionein) following a 6 hour preincubation using different concentrations of BSO (L-Buthionine-sulfoxime), a glutathione synthesis inhibitor. The OD was measured 18 hours after the addition of Cd^2+.

Data set [4] relates to S. cerevisiae cells expressing TaPCS1. The note with it: 6 hour preincubation, 200 μM Cd2+, OD 18 hours after Cd2+.
Data set [5] is described as follows: PC synthase activity assay (incorporation of GSH into PC2 and PC3). In kind it is biochemical. As to conditions: for aggregate rate of incorporation of GSH into PC2 and PC3: purified protein. As to the method: PC synthase activity was assayed according to Grill et al. (1989, Proc. Natl. Acad. Sci. U.S.A. 86:6838-6842) in reaction media containing crude soluble fraction (50 μg protein), purified AtPCS1-FLAG (0.5 μg) or no protein, 3.3 mM GSH, 10 mM 2-mercaptoethanol and 200 mM Tris-HCl buffer (pH 8.0) plus or minus 200 μM CdCl2 at 37° C. for 40 minutes. After terminating the reactions with 5% (w/v) 5-sulfosalicylic acid, PCs were estimated in the supernatant by reverse-phase FPLC and reaction with DTNB.

Data set [6] is described as follows: Equilibrium dialysis of purified AtPCS1-FLAG against 109CdCl2. Type of data set: binding. As to conditions: immunoaffinity-purified protein. As to the method:
The binding of Cd^2+ was determined by equilibrium dialysis of a 400-800 μl (160 μg) sample of purified AtPCS1-FLAG against 80 ml volumes of 10 mM Tris-HCl buffer, pH 7.8, containing 0.05 to 20 μM ^109CdCl2 (specific activity 22 Ci/mol, Amersham Pharmacia Biotech, Piscataway, N.J.) for 12 hours at 4° C. in 2 ml mini-collodion membrane tubes (molecular weight cut-off of 25,000; Schleicher and Schuell, Inc., Keene, N.H.). Protein-bound ^109Cd was estimated by measuring the radioactivity of the bulk medium outside the dialysis tube and that of the solution within the dialysis tube and determining the increase in ^109Cd radioactivity consequent on AtPCS1-FLAG. Binding constants and stoichiometries of binding were estimated by nonlinear least squares analysis (Marquardt, 1963, J. Soc. Ind. Appl. Math. 11:431-441) using the Ultrafit nonlinear curve fitting package from BioSoft (Ferguson, Mo.).
On the technique in general: In equilibrium dialysis free small molecules cross a membrane that holds back macromolecules.

A further data set concerns S. cerevisiae. Nature of the data set: Growth of PCS-expressing yeast on YNB medium with 100 μM Cd2+. In kind it is cell-based.
The subject of a further data set is S. cerevisiae cells. Description: Cd2+ accumulation using 109Cd2+. In kind it is cell-based. The note with it: versus empty pYES2 cells; 24 hour culture, non-inhibitory Cd2+ concentrations, n=3. As for the experimental part: FIG. 10 is a graph depicting the greater accumulation of Cd^2+ by cells expressing TaPCS1 compared to the Cd^2+ accumulation by control cells. Yeast cells carrying the empty pYES2 plasmid (white bars) and TaPCS1-expressing cells (black bars) were grown in arginine-phosphate medium containing different non-inhibitory Cd^2+ concentrations. After 24 hours, the cells were harvested and washed and the amount of Cd^2+ accumulated inside the cells was determined using ^109 Cd^2+ (Error bars=S.E., n=3).
S. cerevisiae cells were grown in arginine-phosphate medium for 24 hours in the presence of various amounts of CdCl2 containing 0.5 μCi ^109Cd^2+. The cells were harvested and washed. The radioactivity was determined as described previously (Clemens et al., 1998, Proc. Natl. Acad. Sci. U.S.A. 95:12043-12048).

Turning to `[Cu+2]` [Cu^2+], the “fold increase in concentration exerting 50% inhibition of growth in liquid culture” value in data set [1] amounted to 2.4 fold.

Consider `O=[As]O` [AsO2^−], for which, in [1], the “fold increase in concentration exerting 50% inhibition of growth in liquid culture” value worked out at 1.6 fold; the IC50 is 200 µM and 325 µM.

Consider `[Cl][Cd][Cl]` [Cd^2+, CdCl2], for which, in the data set with TaPCS1 message, the “fold higher concentration of TaPCS1 message” value was 5-10 fold. For the same molecule, the IC50 in data set [2] (TaPCS1-expressing cells) amounted to 90 µM; in data set [2] (control cells with empty pYES2), 6 µM. Further, the “fold increase in concentration exerting 50% inhibition of growth in liquid culture” value in data set [1] turned out to be 24 fold.

Consider `CCCCS(=N)(=O)CCC(N)C(=O)O` [BSO, L-Buthionine-sulfoxime], for which, in [3], the “effect on metallothionein-dependent Cd2+ tolerance” value is recorded as “no effect”. Further, the “effect on TaPCS1-mediated Cd2+ tolerance” value in data set [4] is “reduced the TaPCS1-mediated Cd^2+ tolerance in a dose-dependent manner”.

As for `[Hg+2]` [Hg^2+], in data set [1], the “fold increase in concentration exerting 50% inhibition of growth in liquid culture” value is given as 1.6 fold; the IC50 is 4 µM and 6.3 µM.

B1: AtPCS1-FLAG (protein, UniProt Q9S7Z3 1-485, looked up)
Glutathione …: MAMASLYRRSLPSPPAIDFSSAEGKLIFNEALQKGTMEGFFRLISYFQTQSEPAYCGLASLSVVLNALSIDPGRKWKGPWRWFDESMLDCCEPLEVVKEKGISFGKVVCLAHCSGAKVEAFRTSQSTIDDFRKFVVKCTSSENCHMISTYHRGVFKQTGTGHFSPIGGYNAERDMALILDVARFKYPPHWVPLKLLWEAMDSIDQSTGKRRGFMLISRPHREPGLLYTLSCKDESWIEIAKYLKEDVPRLVSSQHVDSVEKIISVVFKSLPSNFNQFIRWVAEIRITEDSNQNLSAEEKSRLKLKQLVLKEVHETELFKHINKFLSTVGYEDSLTYAAAKACCQGAEILSGSPSKEFCCRETCVKCIKGPDDSEGTVVTGVVVRDGNEQKVDLLVPSTQTECECGPEATYPAGNDVFTALLLALPPQTWSGIKDQALMHEMKQLISMASLPTLLQEEVLHLRRQLQLLKRCQENKEEDDLAAPAY
modifications: FLAG tag
With B1, the “aggregate rate of incorporation of GSH into PC2 and PC3” value is less than 0.01 nmol/mg/min in data set [5] (absence of Cd2+) and 30000 to 35000 nmol/mg/min in [5] (presence of Cd2+ (200 μM CdCl2), 3.3 mM GSH, 37° C.). Also, the “catalytic activity exceeding that of previous preparations from plants” value in data set [5] (versus Grill et al., 1989) is recorded as “more than 10^3 fold”. The “stoichiometric ratio of Cd2+ binding (cadmium per AtPCS1)” value in data set [6] stood at 7.09±0.94.

B2: AtPCS1: Arabidopsis thaliana phytochelatin synthase, 55 kDa, SEQ ID NO: 2 (protein, UniProt Q9S7Z3 1-485, looked up)
Glutathione …: MAMASLYRRSLPSPPAIDFSSAEGKLIFNEALQKGTMEGFFRLISYFQTQSEPAYCGLASLSVVLNALSIDPGRKWKGPWRWFDESMLDCCEPLEVVKEKGISFGKVVCLAHCSGAKVEAFRTSQSTIDDFRKFVVKCTSSENCHMISTYHRGVFKQTGTGHFSPIGGYNAERDMALILDVARFKYPPHWVPLKLLWEAMDSIDQSTGKRRGFMLISRPHREPGLLYTLSCKDESWIEIAKYLKEDVPRLVSSQHVDSVEKIISVVFKSLPSNFNQFIRWVAEIRITEDSNQNLSAEEKSRLKLKQLVLKEVHETELFKHINKFLSTVGYEDSLTYAAAKACCQGAEILSGSPSKEFCCRETCVKCIKGPDDSEGTVVTGVVVRDGNEQKVDLLVPSTQTECECGPEATYPAGNDVFTALLLALPPQTWSGIKDQALMHEMKQLISMASLPTLLQEEVLHLRRQLQLLKRCQENKEEDDLAAPAY
In the case of B2, the “Cd2+ tolerance conferred when expressed in S. cerevisiae” value with S. cerevisiae is reported as “strong Cd^2+ tolerance”. The “stoichiometric ratio of Cd2+ binding (cadmium per AtPCS1)” value in data set [6] is given as “approximately 6”.

B3: TaPCS1: wheat (Triticum aestivum) phytochelatin synthase, SEQ ID NO: 6 (protein, UniProt Q9SWW5 1-500, looked up)
Glutathione …: MEVASLYRRVLPSPPAVEFASAEGKRLFAEALQGGTMEGFFNLISYFQTQSEPAFCGLASLSVVLNALAIDPGRPWKGPWRWFDESMLDCCEPLHKVKAEGITFGKVVCLAHCAGARVQSFRADQTTIHDFRAHLTRCASSQDCHLISSYHRSPFKQTGTGHFSPIGGYHAEKDMALILDVARFKYPPHWVPLTLLWDAMNTTDEATGLLRGFMLVSRRSSAPSLLYTVSCGHGSWKSMAKYCVEDVPNLLKDESLDNVTTLLSRLVESLPANAGDLIKCVIEVRRKEEGESSLSKEEKERLFLKEKVLQQIRDTDLFRVVHELQYPKGLCGSCSSSSDEDSLAEIAATVCCQGAAFLSGNLVSRDGFCCRETCIKCIEANGDGLKTVISGTVVSKGNEQAVDLLLPTSSSKTSLCNSNLKSKIVKYPSSTDVLTVLLLVLQPNTWLGIKDENVKAEFQSLVSTDNLPDLLKQEILHLRRQLHYLAGCKGQEACQEPPSP
Take B3: the “increase in Cd2+ accumulation” value in the data set with S. cerevisiae cells is recorded as 30-50%.
